Experimental data as given in EP2736485B1, “AQUEOUS SOLUTIONS OF […], IN […] SOLUTIONS” (Universität Regensburg, priority 2011, dated 2013).

Test: Solubilisation of active ingredient in aqueous surfactant solution (stirring overnight at room temperature)
Assay type: physicochemical
Details: Aqua bidest. ad 1,00 ml
Description: Das einfache grundlegende System besteht aus einem erfindungsgemäß geeigneten Tensid, einem lipophilen Wirkstoff und Wasser. Durch Lösen der Bestandteile mittels Rühren entsteht ein vorzugsweise klares, kolloidales System, in welchem die lipophile Substanz in Mizellen verkapselt gelöst ist.
Wirkstoff und Tensid wurden eingewogen und um 1ml Aqua bidest. ergänzt. Dieser Ansatz wurde über Nacht durch Rühren bei Raumtemperatur (21°C) gelöst. […] Die Messungen wurden mittels Photonenkorellationsspektrometrie durchgeführt.
Die Herstellung erfolgte analog wie bereits unter Beispiel 1 beschrieben.

What does the source list for CCCC1O[C@@H]2C[C@H]3[C@@H]4CCC5=CC(=O)C=C[C@]5(C)[C@H]4[C@@H](O)C[C@]3(C)[C@]2(C(=O)CO)O1 (stereo partly shown) [Budesonid]?
Budesonid in Lösung (Solutol® HS15 10,00 mg): 0,09 mg; Budesonid in Lösung (Solutol® HS15 50,00 mg): 0,41 mg; Budesonid in Lösung (Solutol® HS15 100,00 mg): 0,77 mg; Budesonid in Lösung (Solutol® HS15 200,00 mg): 1,32 mg
